Patent US8329908B2, “Dual action antibiotics” (Morphochem Aktiengesellschaft fur Kombinatorische Chemie, priority 2001, dated 2012)

Legend:
[1] = test system: S. aureus (MRSA); assay: MIC against S. aureus (MRSA); assay type: cell-based
Procedure: (§1) All examples were tested against several gram positive and gram negative bacteria. They all have a broader and more pronounced activity than the corresponding quinolone and oxazolidinone as well as a 1+1 combination of these two compounds.

[2] = test system: S. aureus (MSSA); assay: MIC against S. aureus (MSSA); assay type: cell-based
Procedure: as §1

[3] = test system: E. faecalis; assay: MIC against E. faecalis; assay type: cell-based
Procedure: as §1

[4] = test system: E. faecium; assay: MIC against E. faecium; assay type: cell-based
Procedure: as §1

[5] = test system: S. pneumoniae; assay: MIC against S. pneumoniae; assay type: cell-based
Procedure: as §1

Structure (SMILES) | Typical MIC range [1] [mg/L] | Typical MIC range [2] [mg/L] | Typical MIC range [3] [mg/L] | Typical MIC range [4] [mg/L] | Typical MIC range [5] [mg/L] | melting point
CC(=O)NC[C@H]1CN(c2ccc(N3CCOCC3)c(F)c2)C(=O)O1 [linezolid] | 1 to 2 | 1 to 2 | 0.5 to 2 | 1 to 2 | 0.125 to 1 | 
CC(=O)NC[C@H]1CN(c2ccc(N3CCN(c4c(F)cc5c(=O)c(C(=O)O)cn6c5c4OCC6C)CC3)c(F)c2)C(=O)O1 (stereo partly drawn) [Example 2, 9-(4-{4-[5-(acetylamino-methyl)-2-oxo-oxazolidin-3-yl]-2-fluoro-phenyl}-piperazin-1-yl)-8-fluoro-3-methyl-6-oxo-2,3-dihydro-6H-1-oxa-3a-aza-phenalene-5-carboxylic acid] |  |  |  |  |  | 258 °C (dec.)
O=C(O)c1cn(C2CC2)c2cc(N3CCNCC3)c(F)cc2c1=O [ciprofloxacin] | 0.5 to 32 | 0.125 to 1 | 0.5 to 32 | 0.25 to 32 | 1 to 4 | 
CC(=O)NC[C@H]1CN(c2ccc(N3CCN(c4cc5c(cc4F)c(=O)c(C(=O)O)cn5C4CC4)CC3)c(F)c2)C(=O)O1 (stereo in doubt) [Example 1, 7-(4-{4-[5-(acetylamino-methyl)-2-oxo-oxazolidin-3-yl]-2-fluoro-phenyl}-piperazin-1-yl)-1-cyclopropyl-6-fluoro-4-oxo-1,4-dihydro-quinoline-3-carboxylic acid] |  |  |  |  |  | 315 to 320 °C (dec.)
